From patent publication US7998926B2, “Dimerized T-cell receptor fragment, its compositions and use” (The Arizona Boad of Regents on Behfl of the University of …, priority 2001, dated 2011)
Positions of bridges follow the written chain, without caps; N, C: chain ends. Chains are numbered I, II in the order given. No end group written: not given here.

Key:
[1] = Immunomodulatory effects of homologs of the β3 peptide
LP-BM5 retrovirus = test: Spleen weight in LP-BM5 retrovirus-infected mice; format: in vivo, C57BL/6 mice; conditions: 200 μg peptide intraperitoneally two and six weeks after infection, relative to untreated infected animals
Excerpt: FIG. 1. Spleen weight. The spleen weights were substantially (p<0.05) elevated in the infected mice relative to the uninfected animals. […] “a” indicates significant differences at p<0.05 compared with uninfected saline treatment.
(§1) Female C57BL/6 mice, four weeks old, were obtained from the Charles River Laboratories Inc. (Wilmington, Del.). Animals were cared for as required by the University of Arizona Committee on Animal Research. After two weeks housing in the Central Animal Facility, University of Arizona, they were randomly assigned to one of the following treatment groups: uninfected normal mice (four mice); LP-BM5-infected mice treated with saline (pyrogen free; six mice); LP-BM5-infected mice treated with 200 μg TCR Vβ3 monomer peptide (six mice); LP-BM5-infected mice treated with 200 μg TCR Vβ3 dimer peptide (six mice). […] Intraperitoneal administration of monomer and dimer peptides (dissolved in saline) was performed two and six weeks after LP-BM5 infection. Infection to of these mice with LP-BM5 retrovirus leads to the rapid induction of clinical symptoms with virtually no latent phase.

splenocyte T cells = test: Con A-stimulated splenocyte proliferation (T cells) of LP-BM5-infected mice; format: in vivo, C57BL/6 mice; conditions: 200 μg/mouse, vs infected saline group
Excerpt: FIG. 2. Con A-stimulated splenocyte proliferation. […] “a” indicates significant differences at p<0.05 compared with uninfected saline treatment group. “b” indicates significant differences at p<0.05 compared with infected saline treatment group.
as §1

splenocyte B cells = test: LPS-stimulated splenocyte proliferation (B cells) of LP-BM5-infected mice; format: in vivo, C57BL/6 mice; conditions: 200 μg/mouse, vs infected saline group
Excerpt: FIG. 3. LPS-stimulated splenocyte proliferation. […] “a” indicates significant differences at p<0.05 compared with uninfected saline treatment group. “b” indicates significant differences at […] compared with infected saline treatment group.
as §1

IL-2 = IL-2 production of splenocyte of LP-BM5-infected mice; format: in vivo, C57BL/6 mice; conditions: 200 μg/mouse, vs infected saline group
Excerpt: FIG. 4. IL-2 production of splenocyte. […] “a” indicates significant differences at p<0.05 compared with uninfected saline treatment group. “b” indicates significant differences at p<0.05 compared with infected saline treatment group.
as §1

IFN-γ = IFN-γ production of splenocyte of LP-BM5-infected mice; format: in vivo, C57BL/6 mice; conditions: 200 μg/mouse, vs infected saline group
Excerpt: FIG. 5. IFN-γ production of splenocyte. […] “a” indicates significant differences at P <0.05 compared with uninfected saline treatment group. “b” indicates significant differences at P<0.05 compared with infected saline treatment group.
as §1

IL-6 = test: Interleukin-6 production of splenocyte of LP-BM5-infected mice; format: in vivo, C57BL/6 mice; conditions: 200 μg/mouse, mitogen-stimulated splenocytes, vs infected saline group
Excerpt: FIG. 7. Interleukin-6 production of splenocyte. […] “a” indicates significant differences at p<0.05 compared with uninfected saline treatment group. “b” indicates significant differences at p<0.05 compared with infected saline treatment group.
as §1

aged mice = conditions: injection of peptide, not highly dimerised; cited from earlier work
IL-4 = test: Interleukin-4 production of splenocyte of LP-BM5-infected mice; format: in vivo, C57BL/6 mice; conditions: 200 μg/mouse, mitogen-stimulated splenocytes, vs infected saline group
Excerpt: FIG. 6. Interleukin-4 production of splenocyte. […] “a” indicates significant differences at P<0.05 compared with uninfected saline treatment group, “b” indicates significant differences at P<0.05 compared with infected saline treatment group.
as §1

Substance	Immunomodulatory effects compared with the β3 peptide [1]	Spleen weight (splenomegaly) (LP-BM5 retrovirus)	Con A-stimulated splenocyte proliferation (T-cell proliferation) (splenocyte T cells)	LPS-stimulated splenocyte proliferation (B cell proliferation) (splenocyte B cells)	IL-2 production of splenocyte (IL-2)	IFN-γ production of splenocyte (IFN-γ)	Interleukin-6 production of splenocyte (IL-6)	Immunosenescence (aged mice)	Spleen weight (splenomegaly) (LP-BM5 retrovirus; listed as Vβ3 peptide dimers)	Con A-stimulated splenocyte proliferation (T-cell proliferation) (splenocyte T cells; listed as Vβ3 peptide dimers)	LPS-stimulated splenocyte proliferation (B cell proliferation) (splenocyte B cells; listed as Vβ3 peptide dimers)	IFN-γ production of splenocyte (IFN-γ; listed as Vβ3 peptide dimers)	Interleukin-4 production of splenocyte (IL-4)	Interleukin-4 production of splenocyte (IL-4; listed as Vβ3 peptide dimers)
C S P K S G H D T V S W Y Q Q A (CSPKSGHDTVSWYQQA) [Pep Vβ5.2]	Active													
CKPISGHNSLFWYRQT [TCR Vβ3 monomer, 16-mer TCR Vβ CDR1 peptide of T-cell receptor β chain clone YT35, monomer form, reference compound]		significant reduction in spleen weight	significantly (p<0.05) prevented the suppression of T-cell proliferation	significantly (p<0.05) prevented the suppression of T-cell proliferation	significantly (p<0.05) normalized IL-2 production	significantly (p<0.05) normalized IFN-γ production	significantly (p<0.05) normalized IL-6	reduces immunosenescence in aged mice						
TCR Vβ3 dimer: homodimer of two SEQ ID NO:1 peptide monomers, formed through a disulphide bond at the N-terminal cysteine (chain 1 CKPISGHNSLFWYRQT; chain 2 CKPISGHNSLFWYRQT; disulfide I:1-II:1)		significant reduction in spleen weight	significantly (p<0.05) prevented the suppression of T-cell proliferation	significantly (p<0.05) prevented the suppression of T-cell proliferation		significantly (p<0.05) normalized IFN-γ production	at least as effective as the monomer		at least as effective as the monomer	at least as effective as the monomer	at least as effective as the monomer	at least as effective as the monomer	significantly (p<0.05) normalized IL-4	at least as effective as the monomer
